Measurements: patent US20250025438A1, “Derivative of aspartic acid and use thereof in treatment of metabolic diseases such as hepatic fibrosis and non-alcoholic hepatitis” (SHENZHEN JINGTAI TECHNOLOGY CO., LTD., priority 2021, published 2025)
Counter-ions that a name gives are not always drawn.

What was measured:
[1] = tested on: collagen I and collagen III; assay: Semi-activated LX2 cells, qPCR: collagen I and collagen III at the mRNA level; type: cell-based; conditions: 48 hours, Q-PCR, Table 2
Summary of the method: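 LX-2 human hepatic stellate cells, adhered 12 h, were treated with 50 µM test compound for 48 h. Total RNA was extracted, and COL1A1, COL1A2 and COL3A1 mRNA were measured by SYBR Green qPCR.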

collagen III = assay: Semi-activated LX2 cells, Western blot: collagen III protein; type: cell-based; conditions: 50-400 μM, 48 hours, FIG. 1, vs 50 μM aspartic acid
Experimental: 4. Western blotting to detect protein expression level
4.1 Extraction of total cell protein: The cells were taken out, the original culture medium was discarded, 1 to 2 mL of 1×PBS was added, washing was performed twice, digestion was performed with trypsin, the supernatant was discarded, the cells at the bottom of the tube were gently moved by flicking, and then 1 mL of PBS was added again to wash the cells twice; after being centrifuged at 1200 rpm for 5 minutes, the supernatant was completely discarded, the cells at the bottom of the tube was mixed well by flicking. Depending on the amount of cells, 50 to 100 μL of protein lysis buffer containing protease inhibitor and phosphatase inhibitor was added, the cells were mixed thoroughly by pipetting, placed on ice and lysed for 30 minutes, then centrifuged at 12,000 rcf for 15 minutes at 4° C., and the supernatant was pipetted and transferred into a new EP tube to obtain the total cell protein, which could be directly used for subsequent determination of protein concentration or stored at −80° C.
4.2 Determination of protein concentration by BCA method: BCA reagent solution A and solution B were mixed well at a ratio of 50:1 to prepare a working solution; 5 μL of the sample to be tested was taken, added into 95 μL of deionized water, mixed, and diluted 20 times, and 20 μL of the diluted sample to be tested was taken and added to a 96-well plate; after 200 μL of the working solution was added, the 96-well plate was placed in a 37° C. incubator and incubated for 30 min, and then tested on the machine.
4.3 Protein denaturation: 100 μg of each of samples was taken respectively, supplemented with protein lysis buffer to reach the volume of each sample, then added with 4× loading buffer at 1/3 of the total volume and mixed thoroughly, underwent denaturation at 99° C. for 10 min, centrifuged and stored at −80° C. […]

Compound | inhibition of the expression of collagen I and collagen III at the mRNA level [1] | inhibitory effect on collagen III protein expression as compared to ASP (collagen III)
COC(=O)[C@@H](N)CC(=O)O [Compound 4] | could inhibit | 
COC(=O)C[C@H](N)C(=O)O [Compound 6] | could inhibit | stronger inhibitory effects
N[C@@H](CCC(=O)O)C(=O)O [Compound 47] | could inhibit | stronger inhibitory effects
COC(=O)C[C@H](N)C(=O)OCOC(=O)[C@@H](N)CC(=O)OC [Compound 54, 4-dimethyl O′1,01-methylene (2S,2'S)-bis (2-aminosuccinate) hydrochloride] | could inhibit | stronger inhibitory effects
